Assay results reported in patent US20080262235A1, “Method and Apparatus for Producing Oxidized Compound” (priority 2005, published 2008).
Where “and” joins values, the source holds several entries; their conditions need not be identical. Identical values can stand only once.

Experiments:
Assay type in all cases: physicochemical
[1] = Test 2: crystal stability by coloration, absorbance (390 nm) of crystals dissolved in dimethylformamide; conditions: for Absorbance of solution of crystals just after preparation / Absorbance of solution of crystals after stored at 60° C. for 15 days: 1 g crystals in 10 mL dimethylformamide; for Change in Absorbance: after 60° C. for 15 days minus just after preparation
Method: In the method according to EXAMPLE 3, the amount of ethanol added to the mixed solution in which the wet crystals of the solvate of ethanol-water of lansoprazole are suspended was changed, and the stability of thus obtained crystals was compared.
The crystals obtained from each of mixed solution systems shown in Table 2 below were each dissolved in dimethylformamide just after the preparation and after stored at 60° C. for 15 days, and the absorbance (390 nm) of thus obtained solutions of crystals was measured. The degree of coloration was compared as an indicator of the crystal stability.
The absorbance of the solution prepared by dissolving 1 g of crystals into 10 mL of dimethylformamide was measured with the use of a spectral photometer (Jasco No. 0214332).
In addition, the pH of each mixed solution in which crystals are suspended was adjusted to about 9 with an aqueous ammonia solution.

[2] = Test 1: storage stability of lansoprazole crystals, content by HPLC; conditions: for Residual ratio after stored for 6 months at 40° C.: [(Content after stored for 6 months at 40° C.)/(Initial Content)]×100; for Initial Content / Content after stored for 6 months at 40° C.: content of lansoprazole in crystals, wt %, HPLC; for Initial Content: before storage
Text: The stability of the crystals of the solvate of lansoprazole (hereinafter, referred to as lansoprazole (1)) obtained by vacuum drying the wet crystals of the solvate of ethanol-water of lansoprazole obtained according to the method in EXAMPLE 2, was compared to the stability of the white crystals of lansoprazole (hereinafter, referred to as lansoprazole (2)) obtained according to the method in EXAMPLE 3.
Herein, the “content” in Table 1 refers to the content of lansoprazole in lansoprazole crystals expressed in wt %, and was measured by HPLC technique (analyzed under each of following conditions: for (1), Column: NOVA PAK, C18, 3.9×150 mm, Temperature: constant temperature of around 25° C., Mobile phase: solution prepared by adjusting the pH of methanol:water:triethylamine (weight ratio=60:40:1) with phosphoric acid to 7.0, Flow rate: 0.5 ml/min, Detector: UV 285 nm, and for (2), Column: CAPCELL PAC, C18, SG120, 4.6×250 mm, Temperature: constant temperature of around 25° C., Mobile phase: solution prepared by adjusting the pH of acetonitrile:water:triethylamine (weight ratio=40:60:1) with phosphoric acid to 7.0, Flow rate: 1 ml/min, Detector: UV 285 nm). The “residual ratio after stored for 6 months at 40° C.” was calculated by [(Content after stored for 6 months at 40° C.)/(Initial Content)]×100 (%).

[3] = Stability of crystals obtained in Example 2 (statement only)

| SMILES | Absorbance of solution of crystals just after preparation [1] | Absorbance of solution of crystals after stored at 60° C. for 15 days [1] | Change in Absorbance [1] | Residual ratio after stored for 6 months at 40° C. [2] | Initial Content [2] | Content after stored for 6 months at 40° C. ([2]; 6 months at 40° C.) | further results |
| --- | --- | --- | --- | --- | --- | --- | --- |
| Cc1c(OCC(F)(F)F)ccnc1C[S+]([O-])c1nc2ccccc2[nH]1 (racemic) [About 40:1, (+/−)-2-(((3-methyl-4-(2,2,2-trifluoroethoxy)-2-pyridyl)methyl)sulfinyl)benzimidazole] | 0.056 | 0.964 | 0.908 | – | – | – | – |
| Cc1c(OCC(F)(F)F)ccnc1C[S+]([O-])c1nc2ccccc2[nH]1 (racemic) [About 160:1, (+/−)-2-(((3-methyl-4-(2,2,2-trifluoroethoxy)-2-pyridyl)methyl)sulfinyl)benzimidazole] | 0.054 | 1.135 | 1.081 | – | – | – | – |
| Cc1c(OCC(F)(F)F)ccnc1C[S+]([O-])c1nc2ccccc2[nH]1 (racemic) [Ethanol non-added, (+/−)-2-(((3-methyl-4-(2,2,2-trifluoroethoxy)-2-pyridyl)methyl)sulfinyl)benzimidazole] | 0.046 | 1.703 | 1.657 | – | – | – | – |
| Cc1c(OCC(F)(F)F)ccnc1C[S+]([O-])c1nc2ccccc2[nH]1 (racemic) [lansoprazole (1), (+/−)-2-(((3-methyl-4-(2,2,2-trifluoroethoxy)-2-pyridyl)methyl)sulfinyl)benzimidazole] | – | – | – | 91.3% and 84.7% and 86.8% | 99.2% and 99.3% and 99.1% | 90.6% and 84.1% and 86.0% | – |
| Cc1c(OCC(F)(F)F)ccnc1C[S+]([O-])c1nc2ccccc2[nH]1 (racemic) [lansoprazole (2), (+/−)-2-(((3-methyl-4-(2,2,2-trifluoroethoxy)-2-pyridyl)methyl)sulfinyl)benzimidazole] | – | – | – | ~100% | 99.7% and 99.8% | 99.6% and 99.8% | stability of crystal compared to lansoprazole (1) ([2]; 6 months at 40° C.): more excellent stability; Residual ratio after stored for 6 months at 40° C. ([2]; listed as (2)): 99.9% and 100.0% |
| Cc1c(OCC(F)(F)F)ccnc1C[S+]([O-])c1nc2ccccc2[nH]1 (racemic) [lansoprazole I type crystal, (+/−)-2-(((3-methyl-4-(2,2,2-trifluoroethoxy)-2-pyridyl)methyl)sulfinyl)benzimidazole] | – | – | – | – | – | – | stability of obtained crystals [3]: stable |
